Reference: ChEMBL document CHEMBL4888484, “Replenishing the malaria drug discovery pipeline: Screening and hit evaluation of the MMV Hit Generation Library 1 (HGL1) against asexual blood stage Plasmodium falciparum ,using a nano luciferase reporter read-out” (2022)

Assays:
Plasmodium falciparum [1] = assay: Hit confirmation in dose-response curve in NF54 nanoGlo assay, at 72h; assay type: functional, organism-based, Erythrocyte; design: timepoint 72 hour; settings: Plasmodium falciparum, NF54, Erythrocyte, 72 h
Plasmodium falciparum [2] = assay: Hit confirmation in dose-response curve in NF54 pLDH assay, at 72h; assay type: functional, organism-based; design: timepoint 72 hour; settings: NF54, Erythrocyte
Plasmodium falciparum [3] = assay: Hit confirmation in dose-response curve in Dd2 pLDH assay, at 72h; assay type: functional, organism-based; design: timepoint 72 hour; settings: Dd2, Erythrocyte
Plasmodium falciparum [4] = assay: Hit confirmation in dose-response curve in NF54 nanoGlo assay, at 12h; assay type: functional, organism-based, Erythrocyte; design: timepoint 12 hour; settings: Plasmodium falciparum, NF54, Erythrocyte, 12 h
[5] = Hit confirmation in dose-response curve in HepG2 cytotoxicity assay, at 72h; assay type: toxicity, cell-based; design: timepoint 72 hour; settings: human, HepG2 cells

| IC50 (Plasmodium falciparum [1]) [µM] | IC50 (Plasmodium falciparum [2]) [µM] | IC50 (Plasmodium falciparum [3]) [µM] | IC50 (Plasmodium falciparum [4]) [µM] | SMILES | IC50 at 72 h [5] [µM] |
| --- | --- | --- | --- | --- | --- |
| 2.24 | 7.41 | 5.62 | 4.9 | COc1ccc(-c2cc3nc(C)cc(N4CCN(C/C=C/c5ccccc5)CC4)n3n2)cc1OC | > 10 |
| 0.457 | 3.63 | 3.16 | > 10 | Cc1cc(NC(=O)c2ccccn2)n(-c2nc3ccccc3o2)n1 | > 10 |
| 2 | 4.17 | 2.29 | 5.75 | N[C@H]1C[C@@H](c2cc(N3CCN(C4CCCCC4)CC3)nc(N3CCCC3)n2)C1 | > 10 |
| 1.58 | 2.75 | 1.95 | 2.09 | Oc1cc(CC[C@H]2CCCCN2)cc(-c2cnc3ccccc3n2)c1 | > 10 |
| 9.77 | 10 | 9.12 | > 10 | COc1cccc2c(=O)c3c([nH]c12)CCN(CC(=O)NCc1ccccc1Cl)C3 | > 10 |
| 1.58 | 5.13 | 2.75 | 3.09 | Oc1ccc2ncccc2c1[C@@H](Nc1ccccn1)c1cccc(Br)c1 | > 10 |
| 2.4 | 9.12 | 7.76 | 3.39 | CC(C)C(NC(=O)COc1ccccc1)C(=O)NCC(c1ccccc1Cl)c1c[nH]c2ccccc12 (stereo not given) | > 10 |
| > 10 | > 10 | > 10 | > 10 | COC(=O)c1c(NC(C)=O)c2cc(NC3CCOCC3)cnc2n1CCc1ccc(OC)cc1 | > 10 |
| 5.5 | 5.62 | 8.32 | > 10 | O=C(CCc1ccc(Cl)c(C(F)(F)F)c1)N1CC[C@H](N2CCc3ccccc3C2)C1 | > 10 |
| 3.47 | 1.12 | 5.62 | > 10 | O=S(=O)(c1ccc(Cl)s1)N1CCC(N2CCc3sccc3C2)CC1 | > 10 |
| 3.09 | 4.07 | 3.55 | 6.61 | N#Cc1c(-c2ccccc2)cc(-c2ccccc2)nc1S(=O)(=O)Cc1ccccc1 | > 10 |
| 2.82 | 7.94 | 5.01 | 5.75 | c1coc(CNc2nc(Nc3cccc4ccccc34)nc3ccccc23)c1 | > 10 |
| 2.4 | 2.75 | 3.72 | 5.75 | COc1cc([C@H](CC(=O)NC2CCN(Cc3ccccc3)CC2)N2Cc3ccccc3C2=O)cc(OC)c1OC | > 10 |
| 1.05 | 1.55 | 1.62 | > 10 | Cc1n(CC(=O)c2ccccc2)c2ccccc2[n+]1CC(=O)c1ccccc1 | > 10 |
| 2.45 | 3.24 | 3.63 | > 10 | c1ccc(CCNc2nc(-c3ccccn3)cs2)cc1 | > 10 |
| 2.57 | > 10 | > 10 | 1.62 | COc1ccc(CC(=O)NCCn2c(C(F)(F)F)nc3ccccc32)cc1 | > 10 |
| 1.7 | 2.19 | 1.48 | > 10 | CCc1c(C)nn2c(c1C)c(-c1ccccc1)[n+]1c(C)c(CC)c(C)nc21 | > 10 |
| 2.09 | 2.82 | 3.24 | 6.76 | Cn1ccnc1[C@@H]1CCCN1Cc1nccn1Cc1ccccc1 | > 10 |
| 1.62 | 2.88 | 2.82 | 6.03 | CC(C)(C)n1nc2nc(NCCN3CCCCC3)nc(-c3ccc(F)c(Cl)c3)c2c1N | > 10 |
| 3.39 | > 10 | > 10 | 1.48 | Cc1cc(Br)cc(N[C@H](c2cccnc2)c2ncc[nH]2)c1 | > 10 |
| 2.63 | 6.17 | 3.8 | 7.24 | NC(=O)c1ccc(C(F)(F)F)n(C[C@H](O)c2cc(Cl)ccc2Cl)c1=O | > 10 |
| 0.00204 | 0.00331 | > 10 | 0.49 | CC1CC(C(=O)Nc2[nH]c(=O)ncc2F)CC(C)(C)C1 (stereo not given) | > 10 |
| 1.82 | 2.69 | 2.4 | 2.63 | CCc1cccc(NC(=O)Cn2ccc3ccc(-c4nnc(C)o4)cc32)c1 | > 10 |
| 0.759 | > 10 | > 10 | 0.363 | CCN(C(=O)Cn1cc(-c2ccccc2)c2ncn(CC)c(=O)c21)c1ccccc1 | > 10 |
| 2 | 9.77 | 8.51 | 3.16 | Cc1c(C)n(CC(O)CNC(C)c2ccccc2)c2c(Cl)cccc12 (stereo not given) | 10 |

| IC50 (Plasmodium falciparum [1]) [µM] | IC50 (Plasmodium falciparum [2]) [µM] | IC50 (Plasmodium falciparum [3]) [µM] | IC50 (Plasmodium falciparum [4]) [µM] | SMILES | IC50 at 72 h [5] [µM] |
| --- | --- | --- | --- | --- | --- |
| 1.66 | 2.4 | 2.19 | 2.82 | CC(C)CC[C@@H](CCNC1CCN(C)CC1)c1ccc(Cl)cc1 | > 10 |
| 1.86 | > 10 | > 10 | > 10 | Cc1cc(=O)[nH]c(-n2nc(C3CC3)cc2NC(=O)c2ccc(C(C)(C)C)cc2)n1 | > 10 |
| 1.51 | 2.04 | 1.78 | 5.01 | Cc1cc(N2C[C@H]3CC[C@@H](C2)[C@H]3N(C)C)nc(Nc2cccc(O)c2)n1 | > 10 |
| 0.00191 | 0.00166 | > 10 | 0.501 | O=C(Nc1[nH]c(=O)ncc1F)c1cc(F)c(F)cc1Br | > 10 |
| 9.55 | > 10 | > 10 | > 10 | COc1ccc(-c2cc(-c3ccccc3)nc(N3CCC(C)CC3)n2)cc1 | > 10 |
| 2.24 | 3.31 | 5.37 | 6.46 | Cc1cc(N)nc(Nc2ccc(Nc3ccccc3)cc2)n1 | > 10 |
| 0.603 | 1.29 | 1.12 | 1.2 | CCN(CC)CC(O)COc1c(Br)cc(C(C)(C)c2cc(Br)c(OCC(O)CN(CC)CC)c(Br)c2)cc1Br (stereo not given) | 5.75 |
| 1.51 | 6.92 | 3.72 | 3.72 | NCc1cccc(C(=O)N2CCc3cc4ccc3[C@@H]2c2cccc(c2)OCCCNC(=O)c2cc(ccc2O)O4)c1 | > 10 |
| 1.26 | 4.07 | 3.24 | > 10 | CCc1cc(=O)[nH]c(-n2nc(C3CC3)cc2NC(=O)C2CCCCC2)n1 | > 10 |
| 2.24 | 8.32 | 7.94 | 1.66 | O=C(Nc1cccnc1)c1ccc(-c2ccc(Cl)c(Cl)c2)o1 | > 10 |
| 1.15 | 5.13 | 2.75 | 2.69 | CCOc1ccc(C2c3[nH]c4ccccc4c3C[C@H]3C(=O)N(C4CCN(Cc5ccccc5)CC4)CC(=O)N23)cc1OC (stereo not given in full) | > 10 |
| 1.48 | 2.29 | 1.35 | > 10 | Cc1ccc2c(c1)c1c(n2S(=O)(=O)c2ccc(C(C)(C)C)cc2)CCCN(C)C1 | > 10 |
| 1.51 | 2.04 | 1.55 | 2.95 | CC(=O)c1cc(-c2cc(O)cc(CC[C@H]3CCCCN3)c2)ccc1O | > 10 |
| 3.24 | > 10 | > 10 | 3.63 | COCCNC(=O)c1ccc(-n2nc(-c3nnc(C)o3)c(C)c2-c2ccc(OC)cc2)cc1 | > 10 |
| 2 | 3.47 | 2.95 | 3.72 | CN(C)CCN(C)c1ccc(Br)cc1NCc1cncn1C | > 10 |
| 4.68 | > 10 | 8.91 | 6.17 | COCCCn1c(NS(=O)(=O)c2ccccc2)c(S(=O)(=O)c2ccc(C)cc2)c2nc3ccccc3nc21 | > 10 |
| > 10 | > 10 | 7.76 | > 10 | CCOc1ccc(NC(=O)c2cn3nc(-c4ccc(OCC)cc4)cc3nc2C2CCN(C(=O)OC(C)(C)C)CC2)cc1 | > 10 |
| 3.39 | 7.59 | 5.89 | 9.55 | C[C@@H](CNc1nc(-c2ccccc2)nc2nc(-c3ccc(Cl)cc3)oc12)N1CCCCC1 | > 10 |
| 3.02 | > 10 | > 10 | 1.26 | COc1ccc(CCNC(=O)c2cnn3c4c(cnc23)C[C@@H](C)CC4)cc1OC | > 10 |
| 1.38 | 3.16 | 1.78 | 2.45 | CCOc1cc(C(=O)Nc2ccc3nc4c(c(Nc5ccc(OC)c(OC)c5)c3c2)CCCC4)cc(OCC)c1OCC | > 10 |
| 1.66 | 2.82 | 2.09 | 3.31 | CC(C)c1cccc(Nc2nc3ccncc3n(C(C)C)c2=O)c1 | > 10 |
| 2.82 | 3.31 | 2.88 | > 10 | Cn1n[n+](CCCCC(Cl)(Cl)Cl)c2ccccc21 | > 10 |
| 1.29 | 3.02 | 1.41 | > 10 | c1ccc(CC2=NCCc3ccccc32)cc1 | > 10 |
| 1.62 | 2.82 | 2.63 | 3.63 | CCOc1cc(-c2cc(-c3ccccc3O)nc3ccc4ccccc4c23)cc(Br)c1O | > 10 |
